Data taken from article PMC6222476 (Molecules : A Journal of Synthetic Chemistry and Natural …, 2018).
Where two headings read alike, the source gives them in different places. One block for each compound: values may come before it.

Columns and labels:
[1] = tested on: Hep-G2 human hepatoma cell line; experiment: cells; assay type: cell-based; conditions: for GI50: SRB assay, 48 h, Hep-G2
Method: (§1) All the newly synthesized compounds were screened for their in vitro anticancer activity against six cancer cell lines: SK-MEL-2, MCF-7, IMR-32, MG-63, HT-29 and Hep-G2 by SRB assay, using adriamycin as a standard drug. All the synthesized derivatives 4(a–n) were also tested for their cytotoxic effect on normal cell lines i.e., NIH/3T3 (murine embryonic fibroblast by the SRB assay method. The cell lines were grown in RPMI 1640 medium containing 10% fetal bovine serum and 2 mM L-glutamine. For the present screening experiments, cells were inoculated into 96 well microtiter plates in 90 µL at 5000 cells per well. After cell inoculation, the microtiter plates were incubated at 37 °C, 5% CO2, 95% air and 100% relative humidity for 24 h prior to addition of experimental drugs. Experimental drugs were solubilized in appropriate solvent to prepare stock of 10^−2 concentration. At the time of experiment four 10-fold serial dilutions were made using complete medium. Aliquots of 10 µL of these different drug dilutions were added to the appropriate micro-titer wells already containing 90 µL of medium, resulting in the required final drug concentrations. After compound addition, plates were incubated at standard conditions for 48 h. and assay was terminated by the addition of cold trichloroacetic acid (TCA). Cells were fixed in situ by the gentle addition of […] (final concentration, 10% TCA) and incubated for 60 min at 4 °C. The supernatant was discarded; the plates were washed five times with tap water and air dried.
(§2) Sulforhodamine B (SRB) solution (50 µL) at 0.4% (w/v) in 1% acetic acid was added to each of the wells, and plates were incubated for 20 min at room temperature. After staining, unbound dye was recovered and the residual dye was removed by washing five times with 1% acetic acid. The plates were air dried. Bound stain was subsequently eluted with 10 mM trizma base, and the absorbance was read on an ELISA plate reader at a wavelength of 540 nm with 690 nm reference wavelength. All the tests were repeated in at least three independent experiments at the concentrations of 10, 20, 40 and 80 µg/mL [57].

[2] = tested on: MCF-7 human breast cancer cell line; experiment: cells; assay type: cell-based; conditions: 48 h
Method: as §1, §2

[3] = tested on: SK-MEL-2 human melanoma cancer cell line; experiment: cells; assay type: cell-based; conditions: SRB assay, 48 h, read-out: GI50 SKMEL-2
Method: as §1, §2

[4] = tested on: HT-29 human colon cancer cell line; experiment: cells; assay type: cell-based; conditions: for anticancer activity compared with standard drug adriamycin, HT-29: HT-29 (human colon cancer) cell line; for GI50: SRB assay, 48 h, HT-29
Method: as §1, §2

[5] = tested on: MG-63 human osteosarcoma cell line; experiment: cells; assay type: cell-based; conditions: SRB assay, 48 h
Method: as §1, §2

[6] = tested on: IMR-32 neuroblastoma cell line; experiment: cells; assay type: cell-based, human; conditions: SRB assay, 48 h
Method: as §1, §2

[7] = tested on: NIH/3T3 normal murine embryonic fibroblast cell line; experiment: in vitro; assay type: cell-based; conditions: SRB assay
Method: as §1, §2

[8] = in vitro; assay type: cell-based; conditions: mouse, SRB assay, normal murine embryonic fibroblast cell line; for GI50: read-out: GI50 NIH/3T3
Method: as §1, §2

[9] = tested on: Swiss albino mice; experiment: In vivo acute oral toxicity study and gross behavioral studies (OECD Guideline no. 425); set-up: key to Additional Observation: Convulsions / Behavioral Observation: Motor Activity / Behavioral Observation: Stereotypy / Behavioral Observation: Tremors / Behavioral Observation: Catalepsy / Behavioral Observation: Sedation / Behavioral Observation: Hypnosis / Behavioral Observation: Muscle Spasm / Behavioral Observation: Analgesia / Behavioral Observation: Arching & Rolling / Additional Observation: Skin and Fur / Additional Observation: Eyes Lacrimation / Additional Observation: Salivation / Additional Observation: Diarrhea / Additional Observation: Respiration / Additional Observation: Straub Tail / Additional Observation: Pilo Erection: N. no; Y: Yes; conditions: for Additional Observation: Convulsions / Additional Observation: Diarrhea / Additional Observation: Eyes Lacrimation / Additional Observation: Pilo Erection / Additional Observation: Respiration / Additional Observation: Salivation / Additional Observation: Skin and Fur / Additional Observation: Straub Tail / Behavioral Observation: Analgesia / Behavioral Observation: Arching & Rolling / Behavioral Observation: Catalepsy / Behavioral Observation: Hypnosis / Behavioral Observation: Motor Activity / Behavioral Observation: Muscle Spasm / Behavioral Observation: Sedation / Behavioral Observation: Stereotypy / Behavioral Observation: Tremors / No. of Death / Toxicity: Swiss albino mice; for Additional Observation: Convulsions / Additional Observation: Diarrhea / Additional Observation: Eyes Lacrimation / Additional Observation: Pilo Erection / Additional Observation: Respiration / Additional Observation: Salivation / Additional Observation: Skin and Fur / Additional Observation: Straub Tail / Behavioral Observation: Analgesia / Behavioral Observation: Arching & Rolling / Behavioral Observation: Catalepsy / Behavioral Observation: Hypnosis / Behavioral Observation: Motor Activity / Behavioral Observation: Muscle Spasm / Behavioral Observation: Sedation / Behavioral Observation: Stereotypy / Behavioral Observation: Tremors: single oral dose; for No. of Death / Toxicity: single oral dose 100-2000 mg/kg; for lethal dose / mortality: mice, oral; for mortality: up to 2000 mg/kg
Method: The in vivo acute oral toxicity study for the newly synthesized scaffolds 4b and 4h was performed according to the OECD Guideline no. 425 [60] using Swiss albino mice (18–22 gm weight) quarantined at the animal house at Y.B. Chavan College of Pharmacy, Aurangabad IAEC approval number CPCSEA/IAEC/P’col-52/2015-16/115. Each group consisted of six mice (overnight fasted) and kept in a colony cage at 25 ± 2 °C with 55% relative humidity and 12 h of light and dark cycle. A specified dose of 100, 250, 500, 750, 1000, 1500 and 2000 mg/kg body weight of mice was administered orally as a single dose. The acute toxic symptoms and the behavioral changes produced by the test compounds were observed continuously for 4 h periods at 8th, 12th and 24th h. Onset of toxic symptoms and the gross behavioral changes were also recorded. These animals were maintained for further 10 days with observations made daily. In case the animal appeared moribund (dying) the animal was sacrificed in a humane way and it is considered to have died because of toxicity.

SMILES: CCOP(=O)(OCC)C(NN=C1C(=O)Nc2ccccc21)c1ccc(OC)c(OC)c1 (stereo not shown) [4e, Diethyl(3,4-dimethoxyphenyl)(2-(2-oxoindolin-3-ylidene)hydrazinyl)methylphosphonate]
- GI50 [1]: 12.2 µM
- GI50 ([2]; SRB assay): > 100 µM
- GI50 [3]: 55.2 µM
- anticancer activity compared with standard drug adriamycin, HT-29 [4]: equipotent
- GI50 [4]: < 0.1 µM
- GI50 [5]: < 0.1 µM
- GI50 [6]: > 100 µM
- GI50 [7]: > 250 µM

- GI50 ([1]; Homo sapiens, HepG2): < 0.1 µM
- GI50 ([2]; Homo sapiens, MCF7, SRB assay): < 0.1 µM
- GI50 ([3]; Homo sapiens): < 0.1 µM
- GI50 ([4]; Homo sapiens): < 0.1 µM
- GI50 ([5]; Homo sapiens): < 0.1 µM
- GI50 ([6]; Homo sapiens): < 0.1 µM
- GI50 at 48 h ([8]; NIH/3T3 normal murine embryonic fibroblast cells): 82.2 µM
SMILES: COc1cccc2c1C(=O)c1c(O)c3c(c(O)c1C2=O)C[C@@](O)(C(=O)CO)C[C@@H]3O[C@H]1C[C@H](N)[C@H](O)[C@H](C)O1 [ADR, Adriamycin, reference compound]

SMILES: CCOP(=O)(OCC)C(NN=C1C(=O)Nc2ccccc21)c1ccc(F)cc1 (stereo not shown) [4c, Diethyl(4-flurophenyl)(2-(2-oxoindolin-3-ylidene)hydrazinyl)methylphosphonate]
- GI50 [1]: 32 µM
- GI50 ([2]; SRB assay): > 100 µM
- GI50 [3]: 57.5 µM
- GI50 [4]: 20.8 µM
- GI50 [5]: < 0.1 µM
- GI50 [6]: > 100 µM
- GI50 [7]: > 250 µM

SMILES: CCOP(=O)(OCC)C(N/N=C1\C(=O)Nc2ccccc21)c1scnc1C (stereo not shown) [4n, (Z)-Diethyl (4-methylthiazole-5-yl)(2-(2-oxoindolin-3-ylidene)hydrazinyl)methylphosphonate]
- GI50 ([1]; Homo sapiens, HepG2): 24.9 µM
- GI50 ([2]; Homo sapiens, MCF7, SRB assay): 58.2 µM
- GI50 ([3]; Homo sapiens): 33.1 µM
- anticancer activity compared with standard drug adriamycin, HT-29 [4]: equipotent
- GI50 ([4]; Homo sapiens): < 0.1 µM
- GI50 ([5]; Homo sapiens): < 0.1 µM
- GI50 ([6]; Homo sapiens): 67.8 µM
- GI50 [8]: > 250 µM
- melting point: 188 to 190 °C

SMILES: CCOP(=O)(OCC)C(NN=C1C(=O)Nc2ccccc21)c1ccccc1 (stereo not shown) [4a, Diethyl(phenyl)(2-(2-oxoindolin-3-ylidene)hydrazinyl)methylphosphonate]
- GI50 [1]: 55.2 µM
- GI50 ([2]; SRB assay): > 100 µM
- GI50 [3]: 56.9 µM
- GI50 [4]: 56.9 µM
- GI50 [5]: < 0.1 µM
- GI50 [6]: > 100 µM
- GI50 [7]: > 250 µM

SMILES: CCOP(=O)(OCC)C(NN=C1C(=O)Nc2ccccc21)c1ccc(Cl)cc1 (stereo not shown) [4b, Diethyl(4-chlorophenyl)(2-(2-oxoindolin-3-ylidene)hydrazinyl)methylphosphonate]
- GI50 [1]: 18.6 µM
- GI50 ([2]; SRB assay): 67.2 µM
- GI50 [3]: 41.4 µM
- GI50 [4]: 46.9 µM
- GI50 [5]: < 0.1 µM
- GI50 [6]: > 100 µM
- GI50 [7]: > 250 µM
- Additional Observation: Convulsions [9]: N
- Additional Observation: Diarrhea [9]: N
- Additional Observation: Eyes Lacrimation [9]: N
- Additional Observation: Pilo Erection [9]: Y
- Additional Observation: Respiration [9]: N
- Additional Observation: Salivation [9]: N
- Additional Observation: Skin and Fur [9]: N
- Additional Observation: Straub Tail [9]: N
- Behavioral Observation: Analgesia [9]: N
- Behavioral Observation: Arching & Rolling [9]: N
- Behavioral Observation: Catalepsy [9]: N
- Behavioral Observation: Hypnosis [9]: N
- Behavioral Observation: Motor Activity [9]: N
- Behavioral Observation: Muscle Spasm [9]: N
- Behavioral Observation: Sedation [9]: N
- Behavioral Observation: Stereotypy [9]: N
- Behavioral Observation: Tremors [9]: N
- No. of Death [9]: Nil
- Toxicity [9]: free of any toxicity and Nil
- lethal dose [9]: above 2000 mg/kg body weight
- mortality [9]: No mortality

SMILES: CCOP(=O)(OCC)C(N/N=C1\C(=O)Nc2ccccc21)c1ccccc1O (stereo not shown) [4k, (Z)-Diethyl (2-hydroxyphenyl)(2-(2-oxoindolin-3-ylidene)hydrazinyl)methylphosphonate]
- GI50 ([1]; Homo sapiens, HepG2): 11.7 µM
- GI50 ([2]; Homo sapiens, MCF7, SRB assay): > 100 µM
- GI50 ([3]; Homo sapiens): 66.2 µM
- GI50 ([4]; Homo sapiens): 26.1 µM
- GI50 ([5]; Homo sapiens): < 0.1 µM
- GI50 ([6]; Homo sapiens): 44.1 µM
- GI50 [8]: > 250 µM
- melting point: 152 to 154 °C

SMILES: CCOc1cc(C(N/N=C2\C(=O)Nc3ccccc32)P(=O)(OCC)OCC)ccc1O (stereo not shown) [4h, (Z)-Diethyl(3-ethoxy-4-hydroxyphenyl)(2-(2-oxoindolin-3-ylidene)hydrazinyl)methylphosphonate]
- GI50 [1]: 43.8 µM
- GI50 ([2]; SRB assay): 70.7 µM
- GI50 [3]: 51 µM
- GI50 [4]: 4.1 µM
- GI50 [5]: < 0.1 µM
- GI50 [6]: > 100 µM
- GI50 [7]: > 250 µM
- Additional Observation: Convulsions [9]: N
- Additional Observation: Diarrhea [9]: N
- Additional Observation: Eyes Lacrimation [9]: N
- Additional Observation: Pilo Erection [9]: Y
- Additional Observation: Respiration [9]: N
- Additional Observation: Salivation [9]: N
- Additional Observation: Skin and Fur [9]: N
- Additional Observation: Straub Tail [9]: N
- Behavioral Observation: Analgesia [9]: N
- Behavioral Observation: Arching & Rolling [9]: N
- Behavioral Observation: Catalepsy [9]: N
- Behavioral Observation: Hypnosis [9]: N
- Behavioral Observation: Motor Activity [9]: Y
- Behavioral Observation: Muscle Spasm [9]: N
- Behavioral Observation: Sedation [9]: N
- Behavioral Observation: Stereotypy [9]: N
- Behavioral Observation: Tremors [9]: N
- No. of Death [9]: Nil
- Toxicity [9]: free of any toxicity and Nil
- lethal dose [9]: above 2000 mg/kg body weight
- mortality [9]: No mortality

SMILES: CCOP(=O)(OCC)C(N/N=C1\C(=O)Nc2ccccc21)c1cccs1 (stereo not shown) [4i, (Z)-Diethyl(2-(2-oxoindolin-3-ylidene)hydrazinyl)(thiophen-2-yl)methylphosphonate]
- anticancer activity compared with standard drug Adriamycin, Hep-G2 ([1]; Hep-G2 (human hepatoma) cell line): equipotent
- GI50 [1]: < 0.1 µM
- GI50 ([2]; SRB assay): > 100 µM
- GI50 [3]: 55.5 µM
- anticancer activity compared with standard drug adriamycin, HT-29 [4]: equipotent
- GI50 [4]: < 0.1 µM
- GI50 [5]: < 0.1 µM
- GI50 [6]: > 100 µM
- GI50 [7]: > 250 µM

SMILES: CCOP(=O)(OCC)C(NN=C1C(=O)Nc2ccccc21)c1ccc(OC)cc1 (stereo not shown) [4d, (Z)-Diethyl(4-methoxyphenyl)(2-(2-oxoindolin-3-ylidene)hydrazinyl)methylphosphonate]
- GI50 [1]: 45.3 µM
- GI50 ([2]; SRB assay): > 100 µM
- GI50 [3]: 65.7 µM
- anticancer activity compared with standard drug adriamycin, HT-29 [4]: equipotent
- GI50 [4]: < 0.1 µM
- GI50 [5]: < 0.1 µM
- GI50 [6]: > 100 µM
- GI50 [7]: > 250 µM

SMILES: CCOP(=O)(OCC)C(NN=C1C(=O)Nc2ccccc21)c1ccco1 (stereo not shown) [4j, (Z)-Diethylfuran-2-yl(2-(2-oxoindolin-3-ylidene)hydrazinyl)methylphosphonate]
- GI50 [1]: 44.6 µM
- GI50 ([2]; SRB assay): > 100 µM
- GI50 [3]: 93.9 µM
- anticancer activity compared with standard drug adriamycin, HT-29 [4]: equipotent
- GI50 [4]: < 0.1 µM
- GI50 [5]: < 0.1 µM
- GI50 [6]: > 100 µM
- GI50 [7]: > 250 µM
